Measured values: article PMC9929232, “On-demand male contraception via acute inhibition of soluble adenylyl cyclase” (Nature Communications, 2023)
Values joined by “and” are separate entries in the source; they are usually repeats but may differ in a detail not shown here. Identical values can stand only once. “Also recorded” adds a separate entry of the source.

Assays:
[1] = target: T1, sAC-overexpressing rat 4-4 cells (Rattus norvegicus, UniProt Q9Z286); experiment: Cellular cAMP accumulation in sAC-overexpressing 4-4 cells;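 as to cAMP accumulated (%): percent of DMSO-treated control cAMP accumulation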; format: cell-based; set-up: cAMP accumulated: unit not given here; details: for cAMP accumulated (%): Fig. 1d normalized replicates; for cAMP accumulated: Fig. 1d replicates
T1 construct: expressed in transfected cells
T1 sequence (Q9Z286 1-469 limits assumed): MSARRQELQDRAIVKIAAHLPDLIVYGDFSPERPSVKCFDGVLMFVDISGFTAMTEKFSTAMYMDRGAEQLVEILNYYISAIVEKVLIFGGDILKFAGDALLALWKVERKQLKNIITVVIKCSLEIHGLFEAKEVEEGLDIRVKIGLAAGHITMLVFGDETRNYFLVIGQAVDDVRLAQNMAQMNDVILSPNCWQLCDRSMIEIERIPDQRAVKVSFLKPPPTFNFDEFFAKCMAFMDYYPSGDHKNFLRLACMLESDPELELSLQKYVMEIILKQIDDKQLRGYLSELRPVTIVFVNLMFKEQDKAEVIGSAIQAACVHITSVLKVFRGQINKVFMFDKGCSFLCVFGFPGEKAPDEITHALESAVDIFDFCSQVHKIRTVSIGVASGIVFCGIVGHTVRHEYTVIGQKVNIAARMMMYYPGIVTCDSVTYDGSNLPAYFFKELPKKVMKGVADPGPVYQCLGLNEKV
Protocol: sAC-overexpressing rat 4-4 cells were generated and functionally authenticated in our laboratory as previously described[33] and grown in DMEM + 10% FBS. Cells were maintained at 37 °C in 5% CO2 and were periodically checked for mycoplasma contamination.
To assess potency in a cellular system, we utilized 4-4 cells, which stably overexpress sAC[20],[33],[56]. Cellular levels of cAMP reflect a balance between its synthesis by adenylyl cyclases and its degradation by phosphodiesterases (PDEs). […] On the day prior to the assay, 5 × 10^6 cells/ml were seeded in 24-well plates in DMEM with 10% FBS. To measure sAC-dependent cAMP accumulation, cells were pretreated for 10 min with the respective inhibitor at the indicated concentrations or DMSO as control in 300 µl fresh media. Cyclic AMP accumulation was initiated by the addition of 500 µM IBMX, and after 5 min, the media was removed, and the cells were lysed with 250 µl 0.1 M HCl by shaking at 700 rpm for 10 min.

[2] = at 20 µM; cited from earlier work
[3] = cited from earlier work
[4] = tested on: ejaculated uterine mouse sperm; experiment: cAMP in ejaculated uterine mouse sperm from injected males; format: in vivo
Protocol: (§1) For analysis of ejaculated uterine mouse sperm, the uteri of females with mating plugs were removed and placed into 1 ml TYH buffer.

Solubility = format: physicochemical; details: unsuitable for chronic delivery to mice
[5] = tested on: ion channels, GPCRs, kinases, and nuclear receptors; details: cited from earlier work
[6] = tested on: tmACs from each subfamily; details: cited from earlier work
[7] = Pharmacokinetic analysis of TDI-11861 in blood and tissues (LC-MS); format: in vivo, mouse; details: i.p.; including cauda epididymis, excluding testis
Protocol: At defined time points (15 min to 24 hours post-injection), 10 μl tail blood was progressively collected from the same males, mixed with 20 μl 15 mM EDTA, frozen in liquid nitrogen, and stored at −80 °C until analysis. Liver, kidney, eye, testis, caput and cauda epididymis, and seminal vesicle were collected, weighed, and homogenized in a threefold volume of 1:1 EtOH/H2O (v/v). […] Mice anesthetized with ketamine/xylazine were shaved and residual hair was removed with hair removal cream. A small incision was made with a scalpel, a hemostat was used to create a pump-size pocket under the skin, and the pump was inserted with the pump opening facing away from the incision. After the wound was closed, mice were treated with meloxicam for pain relief. For 7 or 42 days post-surgery, tail blood was collected at regular intervals.

mice = format: in vivo; details: for at least 24 hours
[8] = cited from earlier work; remark: listed apart in the source
hERG = details: cited from earlier work
[9] = Pharmacokinetic analysis of TDI-11861 in blood and tissues (LC-MS); format: in vivo, mouse; details: oral, 1 and 3 hours; caput and cauda epididymis, seminal vesicles, not testis
fertility of male mice = experiment: Timed mouse mating (contraceptive efficacy); format: in vivo; details: for Contraceptive efficacy: vs vehicle
Protocol: Single-housed naive (i.e., uninjected and virgin) male and female C57Bl/6 mice were acclimatized to a reverse light cycle (dark: 11 AM to 11 PM) for at least 2 weeks. […] Pregnancy and litter size was assessed in two ways. Either female were sacrificed 7 days following mating and implanted embryos counted, or females were permitted to go to term (21 days) and pups counted. A subset of the pups (both male and female) born from breakthrough pregnancies were permitted to mature and their fertility was assessed in standard matings.

over 310 kinases = details: cited from earlier work
[10] = tested on: ejaculated uterine mouse sperm; experiment: Motility (CASA) of ejaculated uterine mouse sperm from injected males; format: in vivo; set-up: hyperactivated motility (%): concentration or dose not given beside the values
Protocol: as §1
For ex vivo assessment of mouse sperm from inhibitor-treated mice, sperm (25 µl) isolated at the indicated time points (15 min to 24 hours post-injection) diluted 1:5 in non-capacitating TYH buffer were loaded on a […] Leja slide (Hamilton Thorne) and placed on a microscope stage at 37 °C. Sperm movements of 10 fields of at least 200 sperm were examined using computer-assisted sperm analysis (CASA) via Hamilton–Thorne digital image analyzer (IVOS II, Hamilton Thorne Research, Beverly, MA) with the following parameters: 30 frames, frame rate: 60 Hz, cell size: 30–170 μm^2. Ejaculated uterine mouse sperm were recorded without additional dilution. Sperm were considered motile when presenting STR ≥80% and VAP ≥50 μm/s and hyperactivated when presenting VCL ≥270 μm/s, LIN < 50%, and ALH ≥7 μm. Track´s color code: motile (green), progressive (turquoise), hyperactivated (purple), slow (pink), static (red), not counted due to late entry (yellow).

[11] = Fig. 4a replicates, ejaculated uterine sperm, 2 hours after 50 mg/kg i.p.
[12] = 50 mg/kg i.p., mating period 0.5–2.5 hours, 2 hours
[13] = 50 mg/kg i.p., mating period 1–9 hours, 8 hours

Cc1c(Cc2ccccc2)c(-c2cc(Cl)nc(N)n2)nn1C [TDI-10229, reference compound]
cAMP accumulated (%) ([1]; printed 0): 3.303% and 10.629% and 8.51% and 2.193% and 5.92% and 3.107% and 22.11% and 16.4972% and 11.8328% and 5.524% and 4.206% and 1.889% and 2.077%
cAMP accumulated (%) ([1]; printed 0.477121): 0%
cAMP accumulated (%) ([1]; printed -0.52288): 40.0361% and 25.5301% and 16.8792% and 12.1343% and 19.6251% and 46.0455% and 19.6826% and 32.1271% and 49.6122% and 23.5829% and 24.3244% and 21.4812% and 12.9118%
cAMP accumulated (%) ([1]; printed -1): 53.928% and 46.3142% and 43.7516% and 31.429% and 23.6328% and 79.7321% and 41.9299% and 71.9606% and 102.407% and 49.6166% and 29.8946% and 34.6849% and 30.4462%
cAMP accumulated (%) ([1]; printed -1.47712): 63.9701% and 48.7859% and 51.356% and 54.7326% and 51.5128% and 120.896% and 78.187% and 107.566% and 161.903% and 63.1342%
cAMP accumulated ([1]; concentration (uM) -1.95424 [sic]): 47.248 and 20.896 and 22.932 and 53.28 and 23.028 and 39.526 and 63.525 and 88.135 and 120.985 and 194.007 and 68.902 and 22.685
cAMP accumulated ([1]; concentration (uM) -2.43136 [sic]): 48.561 and 22.294 and 31.915 and 66.057 and 37.215 and 54.337 and 58.571 and 46.103 and 61.044 and 66.819 and 131.064 and 78.712 and 23.002
cAMP accumulated ([1]; concentration (uM) -2.90848 [sic]): 49.13 and 27.611 and 32.179 and 77.343 and 38.522 and 35.67 and 62.766 and 41.76 and 54.941 and 113.858 and 170.305 and 78.712 and 23.104

Nc1nc(Cl)cc(-c2nn(C(F)F)cc2Cc2ccccc2OCCN2CCOC[C@@H]2CO)n1 [TDI-11861]
cytotoxicity in cell viability assays [2]: no significant activity
DEREK analysis for mutagenicity risks [3]: no significant activity
bicarbonate-induced cAMP in ejaculated sperm ([4]; 50 mg/kg i.p., retrieved from uterus): no bicarbonate-induced increase in cAMP
cAMP, capacitating media [4, 11]: 0.692 pmol/10^6 sperm and 0.283 pmol/10^6 sperm and 0.5995 pmol/10^6 sperm and 0.72 pmol/10^6 sperm and 1.204 pmol/10^6 sperm and 0.492 pmol/10^6 sperm and 0.468 pmol/10^6 sperm and 0.24 pmol/10^6 sperm
cAMP, non-capacitating media [4, 11]: 0.738 pmol/10^6 sperm and 1.2045 pmol/10^6 sperm and 0.9637 pmol/10^6 sperm and 0.847 pmol/10^6 sperm and 1.232 pmol/10^6 sperm and 0.679 pmol/10^6 sperm and 0.436 pmol/10^6 sperm and 0.514 pmol/10^6 sperm
solubility (Solubility): limited solubility
activity versus 46-member safety panel [5]: no significant activity
activity against tmACs [6]: no activity
levels in tissues versus blood [7]: correlated well with levels in blood
abnormal mouse behavior after single oral dose (mice): did not cause any abnormal mouse behavior
activity in glutathione trapping assays [8]: no significant activity
activity in hERG electrophysiology studies (hERG): no significant activity
levels in tissues versus blood [9]: correlated well with its concentration in blood
mating behavior and mating frequency versus vehicle-injected males (fertility of male mice; 50 mg/kg i.p.): same frequency as vehicle-injected males; also recorded: indistinguishable
Pregnancy rate (fertility of male mice; 50 mg/kg i.p., mating period 0.5–2.5 hours post injection, mating time 2 hours): 0%
Pregnancy pairings (pregnancies/pairings) (fertility of male mice; [12]): zero females became pregnant in 52 pairings; also recorded: (0/52)
Contraceptive efficacy (fertility of male mice; [12]): 100%
Contraceptive efficacy (fertility of male mice; 50 mg/kg i.p., mating period 0.5–[…], 3 hours): 91%
Pregnancy rate (fertility of male mice; 50 mg/kg i.p., mating period 0.5–[…], mating time 3 hours): 2.2%
Pregnancy pairings (pregnancies/pairings) (fertility of male mice; [13]): 5 pregnancies out of 55 and (5/55)
Contraceptive efficacy (fertility of male mice; [13]): 78%
Pregnancy rate (fertility of male mice; 50 mg/kg i.p., mating period 1–9 hours, mating time 8 hours): 9.1%
Pregnancy pairings (pregnancies/pairings) (fertility of male mice; 50 mg/kg i.p., mating period 24–120 hours, 96 hours): (13/15)
Pregnancy rate (fertility of male mice; 50 mg/kg i.p., mating period 24–120 hours, mating time 96 hours (recovery)): 87%
health of F1 progeny from breakthrough pregnancies (fertility of male mice; male and female F1): matured normally into fertile adults
activity against over 310 kinases (over 310 kinases): no significant activity
motility of ejaculated sperm ([10]; 50 mg/kg i.p., retrieved from uterus post-coitus): immotile
progressive motility (%) ([10]; Fig. 4b, ejaculated sperm): 4.7% and 5.3% and 8.9% and 7% and 4% and 4.75% and 3.2%
hyperactivated motility (%) ([10]; Fig. 4c, ejaculated sperm): 1.4% and 0.8% and 0.5% and 0.9% and 1.1%
